Results: PubChem BioAssay (NCI)
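Tested at 5 concentrations; 48 h exposure; 96-well plates; endpoints linearly interpolated, else capped at highest concentration. Definition used: TGI = concentration required for complete inhibition of growth.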

Assays:
Experiment in all cases: NCI anticancer screen, dose series, 48 h
786-0 renal = test system: 786-0 renal
A498 renal = test system: A498 renal
A549 NSCLC = test system: A549 NSCLC
ACHN renal = test system: ACHN renal
CAKI-1 renal = test system: CAKI-1 renal
CCRF-CEM leukemia = test system: CCRF-CEM leukemia
COLO 205 colon = test system: COLO 205 colon
DLD-1 colon = test system: DLD-1 colon
DMS 114 small cell lung = test system: DMS 114 small cell lung
DMS 273 small cell lung = test system: DMS 273 small cell lung
HCT-116 colon = test system: HCT-116 colon
HL-60(TB) leukemia = test system: HL-60(TB) leukemia
HOP-18 NSCLC = test system: HOP-18 NSCLC
HOP-62 NSCLC = test system: HOP-62 NSCLC
HOP-92 NSCLC = test system: HOP-92 NSCLC
HT29 colon = test system: HT29 colon
IGROV1 ovarian = test system: IGROV1 ovarian
K-562 leukemia = test system: K-562 leukemia
KM12 colon = test system: KM12 colon
KM20L2 colon = test system: KM20L2 colon
LOX IMVI melanoma = test system: LOX IMVI melanoma
LXFL 529 NSCLC = test system: LXFL 529 NSCLC
M14 melanoma = test system: M14 melanoma
M19-MEL melanoma = test system: M19-MEL melanoma
MALME-3M melanoma = test system: MALME-3M melanoma
MOLT-4 leukemia = test system: MOLT-4 leukemia
NCI-H226 lung = test system: NCI-H226 lung
NCI-H23 lung = test system: NCI-H23 lung
NCI-H460 lung = test system: NCI-H460 lung
NCI-H522 lung = test system: NCI-H522 lung
OVCAR-3 ovarian = test system: OVCAR-3 ovarian
OVCAR-4 ovarian = test system: OVCAR-4 ovarian
OVCAR-5 ovarian = test system: OVCAR-5 ovarian
OVCAR-8 ovarian = test system: OVCAR-8 ovarian
RPMI-8226 leukemia = test system: RPMI-8226 leukemia
RXF 393 renal = test system: RXF 393 renal
SF-268 CNS = test system: SF-268 CNS
SF-295 CNS = test system: SF-295 CNS
SF-539 CNS = test system: SF-539 CNS
SK-MEL-2 melanoma = test system: SK-MEL-2 melanoma
SK-MEL-28 melanoma = test system: SK-MEL-28 melanoma
SK-MEL-5 melanoma = test system: SK-MEL-5 melanoma
SK-OV-3 ovarian = test system: SK-OV-3 ovarian
SN12C renal = test system: SN12C renal
SNB-19 CNS = test system: SNB-19 CNS
SNB-75 CNS = test system: SNB-75 CNS
SNB-78 CNS = test system: SNB-78 CNS
SR leukemia = test system: SR leukemia
SW-620 colon = test system: SW-620 colon
TK-10 renal = test system: TK-10 renal
U251 CNS = test system: U251 CNS
UACC-257 melanoma = test system: UACC-257 melanoma
UACC-62 melanoma = test system: UACC-62 melanoma
UO-31 renal = test system: UO-31 renal
XF 498 CNS = test system: XF 498 CNS
EKVX NSCLC = test system: EKVX NSCLC
HCC-2998 colon = test system: HCC-2998 colon
HCT-15 colon = test system: HCT-15 colon
RXF-631 renal = test system: RXF-631 renal

c1cc2[se][se]c3c4cccc5[se][se]c(c(c1)c23)c54
TGI (786-0 renal): > 100 µM
TGI (A498 renal): > 100 µM
TGI (A549 NSCLC): > 100 µM
TGI (ACHN renal): > 100 µM
TGI (CAKI-1 renal): > 100 µM
TGI (CCRF-CEM leukemia): > 100 µM
TGI (COLO 205 colon): > 100 µM
TGI (DLD-1 colon): > 100 µM
TGI (DMS 114 small cell lung): > 100 µM
TGI (DMS 273 small cell lung): > 100 µM
TGI (HCT-116 colon): > 100 µM
TGI (HL-60(TB) leukemia): > 100 µM
TGI (HOP-18 NSCLC): > 100 µM
TGI (HOP-62 NSCLC): > 100 µM
TGI (HOP-92 NSCLC): > 100 µM
TGI (HT29 colon): > 100 µM
TGI (IGROV1 ovarian): > 100 µM
TGI (K-562 leukemia): > 100 µM
TGI (KM12 colon): > 100 µM
TGI (KM20L2 colon): > 100 µM
TGI (LOX IMVI melanoma): > 100 µM
TGI (LXFL 529 NSCLC): > 100 µM
TGI (M14 melanoma): > 100 µM
TGI (M19-MEL melanoma): > 100 µM
TGI (MALME-3M melanoma): > 100 µM
TGI (MOLT-4 leukemia): > 100 µM
TGI (NCI-H226 lung): > 100 µM
TGI (NCI-H23 lung): > 100 µM
TGI (NCI-H460 lung): > 100 µM
TGI (NCI-H522 lung): > 100 µM
TGI (OVCAR-3 ovarian): > 100 µM
TGI (OVCAR-4 ovarian): > 100 µM
TGI (OVCAR-5 ovarian): > 100 µM
TGI (OVCAR-8 ovarian): > 100 µM
TGI (RPMI-8226 leukemia): > 100 µM
TGI (RXF 393 renal): > 100 µM
TGI (SF-268 CNS): > 100 µM
TGI (SF-295 CNS): > 100 µM
TGI (SF-539 CNS): > 100 µM
TGI (SK-MEL-2 melanoma): > 100 µM
TGI (SK-MEL-28 melanoma): > 100 µM
TGI (SK-MEL-5 melanoma): > 100 µM
TGI (SK-OV-3 ovarian): > 100 µM
TGI (SN12C renal): > 100 µM
TGI (SNB-19 CNS): > 100 µM
TGI (SNB-75 CNS): > 100 µM
TGI (SNB-78 CNS): > 100 µM
TGI (SR leukemia): > 100 µM
TGI (SW-620 colon): > 100 µM
TGI (TK-10 renal): > 100 µM
TGI (U251 CNS): > 100 µM
TGI (UACC-257 melanoma): > 100 µM
TGI (UACC-62 melanoma): > 100 µM
TGI (UO-31 renal): > 100 µM
TGI (XF 498 CNS): > 100 µM

N=c1oc2cc(O)c(O)cc2cc1C(N)=O
TGI (786-0 renal): > 100 µM
TGI (A498 renal): > 100 µM
TGI (A549 NSCLC): > 100 µM
TGI (ACHN renal): > 100 µM
TGI (CAKI-1 renal): > 100 µM
TGI (CCRF-CEM leukemia): > 100 µM
TGI (COLO 205 colon): > 100 µM
TGI (DLD-1 colon): > 100 µM
TGI (DMS 114 small cell lung): > 100 µM
TGI (DMS 273 small cell lung): > 100 µM
TGI (EKVX NSCLC): > 100 µM
TGI (HCC-2998 colon): > 100 µM
TGI (HCT-116 colon): > 100 µM
TGI (HCT-15 colon): > 100 µM
TGI (HOP-62 NSCLC): > 100 µM
TGI (HOP-92 NSCLC): > 100 µM
TGI (HT29 colon): > 100 µM
TGI (IGROV1 ovarian): > 100 µM
TGI (K-562 leukemia): > 100 µM
TGI (KM12 colon): > 100 µM
TGI (KM20L2 colon): > 100 µM
TGI (LOX IMVI melanoma): > 100 µM
TGI (LXFL 529 NSCLC): > 100 µM
TGI (M14 melanoma): > 100 µM
TGI (M19-MEL melanoma): > 100 µM
TGI (MALME-3M melanoma): > 100 µM
TGI (MOLT-4 leukemia): > 100 µM
TGI (NCI-H226 lung): > 100 µM
TGI (NCI-H23 lung): > 100 µM
TGI (NCI-H460 lung): > 100 µM
TGI (NCI-H522 lung): > 100 µM
TGI (OVCAR-3 ovarian): > 100 µM
TGI (OVCAR-4 ovarian): > 100 µM
TGI (OVCAR-5 ovarian): > 100 µM
TGI (OVCAR-8 ovarian): > 100 µM
TGI (RPMI-8226 leukemia): > 100 µM
TGI (RXF 393 renal): > 100 µM
TGI (RXF-631 renal): > 100 µM
TGI (SF-268 CNS): > 100 µM
TGI (SF-295 CNS): > 100 µM
TGI (SF-539 CNS): > 100 µM
TGI (SK-MEL-2 melanoma): > 100 µM
TGI (SK-MEL-28 melanoma): > 100 µM
TGI (SK-MEL-5 melanoma): > 100 µM
TGI (SK-OV-3 ovarian): > 100 µM
TGI (SN12C renal): > 100 µM
TGI (SNB-19 CNS): > 100 µM
TGI (SNB-75 CNS): 96.3 µM
TGI (SNB-78 CNS): > 100 µM
TGI (SW-620 colon): > 100 µM
TGI (TK-10 renal): > 100 µM
TGI (U251 CNS): > 100 µM
TGI (UACC-257 melanoma): > 100 µM
TGI (UACC-62 melanoma): > 100 µM
TGI (UO-31 renal): > 100 µM
TGI (XF 498 CNS): > 100 µM
